# Assay results reported in patent US20230123695A1, “GLYCAN COMPOSITIONS AND METHODS OF USE” (DSM Nutritional Products, LLC, priority 2018, published 2023).
# What was measured:
# Type in all cases: cell-based, human fecal cultures
# [1] = tested on: Firmicutes, Proteobacteria, and/or Actinobacteria; test: Ex vivo fecal slurry assay, 16S rRNA sequencing (Example 11); settings: 1% w/v fecal slurry from 12 subjects, glycan 0.5% w/v, 37° C., 18 hours, anaerobically; FIGS. 4-6
# Excerpt: (§1) An ex vivo assay was designed to determine if glycans can be used to modulate a complex community of microorganisms and if the glycans produced consistent effects across communities obtained from multiple (twelve) subjects. Fecal samples and slurries were handled in an anaerobic chamber (AS-580, Anaerobe Systems) featuring a palladium catalyst. Glycans ara100, gal100, glu60man40, glu100, glu50gal50, gal33man33ara33, man75gal25, glu33gal33man34, glu33gal33Ara33, man100, man52glu29gal19 and commercially available glycans lactulose (Alfa Aesar) and FOS (Nutraflora FOS; NOW Foods, Bloomingdale Ill.) were included in the study. The fecal sample donations obtained from 12 subjects were stored at −80° C. To prepare working stocks the fecal samples were transferred into the anaerobic chamber and allowed to thaw.
# Microbial beta-glucuronidase, found in Proteobacteria, Firmicutes, and Actinobacteria, is known to modify SN-38 glucuronide, which is used to treat cancer (e.g., colorectal cancer) and has the side-effect of diarrhea, by removing a sugar moiety, creating a compound that is toxic to intestinal epithelial cells. Decreasing the levels or activity of microbial beta-glucuronidase expressing microbes may increase the effectiveness of SN-38 glucuronidine treatment and/or decrease/prevent side effects.
# [2] = tested on: Actinobacteria and/or Coriobacteriaceae/Gordonibacter; test: Ex vivo fecal slurry assay, 16S rRNA sequencing (Example 13); settings: 1% w/v fecal slurry from 12 subjects, glycan 0.5% w/v, 37° C., 18 hours, anaerobically; FIGS. 6 and 8
# Excerpt: as §1
# A microbial enzyme found in Actinobacteria and Coriobacteriaceae/Gordonibacter is known to hydrolyze ellagitannin to ellagic acid.
# [3] = tested on: Enterococcaceae/Enterococcus and/or Bifidobacteriaceae/Bifidobacterium; test: Ex vivo fecal slurry assay, 16S rRNA sequencing (Example 15); settings: 1% w/v fecal slurry from 12 subjects, glycan 0.5% w/v, 37° C., 18 hours, anaerobically; FIGS. 3 and 10
# Excerpt: as §1
# A microbial enzyme, found in Enterococcus faecium, Lactobacillus mucosae, Bifidobacterium sp., and Eggerthella sp., is known to metabolize daidzin into equol, which binds estrogen receptor-beta and may be associated with lower risk/incidence of breast cancer. Increasing the levels or activity of microbes expressing said microbial enzyme may increase the have a preventative effect on cancer, e.g., breast cancer, or treat cancer, e.g., breast cancer.
# [4] = tested on: Enterobacteriaceae/Escherichia/Shigella microbes; test: Ex vivo fecal slurry assay, 16S rRNA sequencing (Example 17); settings: 1% w/v fecal slurry from 12 subjects, glycan 0.5% w/v, 37° C., 18 hours, anaerobically; FIG. 14
# Excerpt: as §1
# Microbial beta-glucuronidase, found in bacteria that carry the uidA gene, e.g., Escherichia coli, is known to reactivate glucuronidated substrate, e.g., heterocyclic amines, (detoxified by hepatic glucuronidation), by removing the conjugate, generating a toxic compound. Decreasing the levels or activity of microbial beta-glucuronidase expressing microbes may decrease the generation of toxic, e.g., carcinogenic, compounds, which may have a preventative effect on cancer.
# [5] = tested on: Enterococcaceae/Enterococcus and/or Enterobacteriaceae/Escherichia/Shigella microbes; test: Ex vivo fecal slurry assay, 16S rRNA sequencing (Example 18); settings: 1% w/v fecal slurry from 12 subjects, glycan 0.5% w/v, 37° C., 18 hours, anaerobically; FIGS. 3 and 14
# Excerpt: as §1
# A microbial enzyme, found in Enterococcus, Clostridium, Corynebacterium, Campylobacter, and Escherichia, is known to convert sweetener to a compound that can be toxic, e.g., converts cyclamate to cyclohexylamine, which can be toxic. Decreasing the levels or activity of microbes expressing said microbial enzyme may decrease the generation of toxic compounds.
# [6] = tested on: Enterobacteriales/Enterobacteriaceae microbes; test: Ex vivo fecal slurry assay, 16S rRNA sequencing (Example 19); settings: 1% w/v fecal slurry from 12 subjects, glycan 0.5% w/v, 37° C., 18 hours, anaerobically; FIG. 15
# Excerpt: as §1
# Microbial phosphorylase, e.g., thymidine phosphorylase or uridine phosphorylase, found in Enterobacteria, e.g., K. pneumoniae, is known to deglycosylate sorivudine, inactivating it. Sorivudine is used to treat viral infection (e.g. herpes simplex virus 1 and varicella-zoster virus). Decreasing the levels or activity of microbes expressing said microbial phosphorylase may decrease the inactivation of sorivudine and increase the effectiveness of sorivudine treatment against viral infections.
# [7] = tested on: Ruminococcaceae/Ruminococcus microbes; test: Ex vivo fecal slurry assay, 16S rRNA sequencing (Example 21); settings: 1% w/v fecal slurry from 12 subjects, glycan 0.5% w/v, 37° C., 18 hours, anaerobically; FIG. 17
# Excerpt: as §1
# A microbial enzyme found in Bacteroidetes (e.g., Bacteroidales) and mucolytic bacteria such as Ruminococcus gnavus, is known to cause metabolic and inflammatory response to emulsifying agents. Decreasing the levels or activity of microbes expressing said microbial enzyme may increase the effectiveness of emulsifying agents, e.g, carboxymethylcellulose or polysorbate-80, e.g., to decrease risk/incidence of metabolic syndrome and/or inflammation.
compound,measurement,setting,value
OC[C@H]1O[C@@H](O[C@@H]2[C@@H](CO)OC(O)(CO)[C@H]2O)[C@H](O)[C@@H](O)[C@H]1O (mixture of isomers) [lactulose],"levels of Firmicutes, Proteobacteria, and/or Actinobacteria",[1],appeared to decrease
same,levels of Actinobacteria and/or Coriobacteriaceae/Gordonibacter,[2],appeared to decrease
same,levels of Enterococcaceae/Enterococcus and/or Bifidobacteriaceae/Bifidobacterium,[3],appeared to increase
same,levels of Enterobacteriaceae/Escherichia/Shigella microbes,[4],appeared to decrease
same,levels of Enterococcaceae/Enterococcus and/or Enterobacteriaceae/Escherichia/Shigella microbes,[5],appeared to decrease
same,levels of Enterobacteriales/Enterobacteriaceae microbes,[6],appeared to decrease
same,levels of Ruminococcaceae/Ruminococcus microbes,[7],appeared to decrease
